Measurements from US20250049888A1, “USE OF THE NEGR1 PROTEIN AND BIOLOGICALLY ACTIVE FRAGMENTS THEREOF IN THE THERAPEUTIC TREATMENT OF ALK-RELATED DISEASES” (FONDAZIONE TELETHON ETS (70%), priority 2021, published 2025).

What was measured:
ERK1/2 = ERK1/2 phosphorylation in N2a cells, western or dot blotting; format: cell-based, murine; conditions: 10 minutes; for ERK1/2 phosphorylation (phospho-ERK/ERK): synthetic peptides, 10 μM
Protocol: Protein level and relative phosphorylation was assessed by western blotting. Briefly, upon a wash in PBS, cells were solubilized in lysis buffer (150 mM NaCl, 50 mM HEPES, 0.5% NP40, 1% sodium-deoxycholate). After 1 hour under mild agitation, the lysate was clarified by centrifugation for 20 min at 16,000 g. All experimental procedures were performed at 4° C. Protein concentrations were evaluated via Bradford assay (Bio-Rad, USA). For Western blotting experiments, an equal amount of proteins was diluted with 0.25% 5× Laemmli buffer. The samples were separated on 10% SDS-PAGE gels which were transferred onto nitrocellulose membrane (Sigma-Aldrich) at 80 V for 120 min at 4° C. Primary antibodies were: Beta-actin (Santa Cruz Biotechnology, sc-47778), ALK (Santa Cruz Biotechnology, sc-398791), N-myc (Santa Cruz Biotechnology, sc-56729), Phospho-p44/42 MAPK (Erk1/2) (Thr202/Tyr204) (Cell Signaling Technology), p44/42 MAPK (Erk1/2) (137F5) Rabbit mAb (Cell Signaling Technology), Akt (pan) (11E7) Rabbit mAb (Cell Signaling Technology), Phospho-Akt (Ser473) (D9E) XP® Rabbit mAb (Cell Signaling Technology), S6 Ribosomal Protein (5G10) Rabbit mAb (Cell Signaling Technology). Antibodies were applied overnight in blocking buffer (20 mM Tris, pH 7.4, 150 mM NaCl, 0.1% Tween 20, and 5% nonfat dry milk). Proteins were detected using the ECL prime detection system (GE Healthcare). The ECL signals were acquired with the imaging ChemiDoc Touch system (Bio Rad Laboratory Italy, Segrate, Italy). The optical density of the specific bands was quantified with ImageLab software (Bio Rad).
ALK triggers a signaling cascade that involves ERK and AKT kinases phosphorylation.
Additionally, the N2a cells were treated with the following synthetic peptides: the synthetic version of PepA-1 (synPepA-1), a scramble peptide including the GDKISV sequence (scr-GDKISV, substituting the W, tryptophan, that can undergo oxidation, with I, Isoleucine), and a scramble peptide (10 μM, 10 minutes). […]

N2a cells [1] = assay: N2a cell growth, MTT assay; format: cell-based, murine
Protocol: (§1) The 3-(4,5-dimethylthiazol-2-yl)-2,5-diphenyl tetrazolium bromide (MTT) assay was performed to evaluate culture vitality. N2a cells were cultured in a 96-well plate at a concentration of 5×10^3 cell/cm^2. Treatment condition is indicated in the result section. At the end of the treatment, the MTT solution was added to the cell medium at a final concentration of 0.25 mg/mL. The incubation lasted 30 minutes at 37° C. Next, the medium was removed and the formazan precipitates were collected in DMSO (200 μL). The absorbance was measured at 570 nm using a spectrophotometer (Varioskan LUX, Thermofisher) as a proxy for cell viability. Relative cell viability fold is expressed over the control condition.
At the physiological level, Negr1 exists as a GPI-anchored membrane-bound protein and as a soluble protein released upon metalloprotease cleavage (Sanz et al. 2015; Pischedda and Piccoli 2015). Thus, the inventors studied whether ectopic treatment with soluble recombinant Negr1 (Negr1) might modulate cancer cell growth. […] At DIV5, cellular growth was evaluated by MTT assay.
To further narrow down the minimal biologically active sequence within PepA, the PepA structure was analysed in silico. […] At DIV5, cellular growth was evaluated by MTT assay.

N2a cells [2] = assay: N2a proliferation, cell number at DIV5; format: cell-based, murine; conditions: 200 ng daily, vs GFP
Protocol: Next, 10,000 naive N2a cells were seeded and treated daily with 200 ng Negr1, PepA, PepB, PepC, or GFP. At DIV5, cell number was evaluated.

[3] = system: MCF7 (breast adenocarcinoma); assay: Growth of human cancer-derived cell line, MTT assay; format: cell-based; conditions: 200 ng daily, vs GFP
Protocol: as §1
(§2) Next, the capability of Negr1 and peptide PepA to halt the growth of human cancer-derived cell lines, namely U87 (glioblastoma), SK-Mel5 (melanoma), MCF7 (breast adenocarcinoma), A549 (adenocarcinoma alveolar basal epithelial cells), and SH-SY5Y (neuroblastoma) was tested. To this aim, each line was treated daily with 200 ng GFP, rNegr1, or PepA. At DIV5, cellular growth was evaluated by MTT assay. […] Such results are in good agreement with the expression of the receptor ALK, that has been experimentally detected in cancer cell lines of ectodermal origin (including small cell lung carcinoma, breast carcinoma, melanoma, neuroblastoma, and glioblastoma) (Dirks et al. 2002).

SH-SY5Y (neuroblastoma) = assay: as above; format: cell-based; conditions: 200 ng daily, vs GFP
Protocol: as §1, §2

U87 (glioblastoma) = assay: as above; format: cell-based; conditions: 200 ng daily, vs GFP
Protocol: as §1, §2

[4] = system: A549 (adenocarcinoma alveolar basal epithelial cells); assay: as above; format: cell-based; conditions: 200 ng daily, vs GFP
Protocol: as §1, §2

SK-Mel5 (melanoma) = assay: as above; format: cell-based; conditions: 200 ng daily, vs GFP
Protocol: as §1, §2

## DGASKGAWLNRSSIIFAGVWGSKDDPRVSISTL (PepA-1-6aa scramble) [reference compound]
ERK1/2
  ERK1/2 phosphorylation (phospho-ERK/ERK): did not alter ERK phosphorylation

## GDKWSV (minimum active sequence) [GDKWSV peptide]
ERK1/2; 30 nM
  ERK1/2 phosphorylation (dot-blot): severe reduction of ERK1/2 phosphorylation

## NRGDKISVSVSSSSGGRAWDWDIAKPGLAILTF (Scramble-GDKISV) [scr-GDKISV]
ERK1/2
  ERK1/2 phosphorylation (phospho-ERK/ERK): reduced ERK1/2 phosphorylation

## Negr1: soluble recombinant full-length Negr1 protein, Strep-FLAG tagged, expressed and purified from HEK293 cells
N2a cells [1]; 200 ng daily, vs GFP
  N2a growth (MTT) at DIV5: significantly reduced N2a growth
N2a cells [1]; 3 μM daily, vs vehicle (Lorlatinib) or GFP (rNegr1, PepA-1)
  N2A growth / cellular vitality (MTT) at DIV5: impaired N2A growth to a similar extent
N2a cells [2]
  N2a proliferation (cell number) at DIV5: significantly reduced N2a proliferation
[3]
  growth of MCF7 cells (MTT) at DIV5: significantly reduce the growth
SH-SY5Y (neuroblastoma)
  growth of SH-SY5Y cells (MTT) at DIV5: significantly reduce the growth
U87 (glioblastoma)
  growth of U87 cells (MTT) at DIV5: significantly reduce the growth
[4]
  growth of A549 cells (MTT) at DIV5: significantly reduce the growth
SK-Mel5 (melanoma)
  growth of SK-Mel5 cells (MTT) at DIV5: significantly reduce the growth
